{"source": "patent US11066379B2", "about": "(THE TEXAS A&M UNIVERSITY SYSTEM, priority 2018, dated 2021)", "key": {"human T lymphocytes": {"system": "human T lymphocytes", "assay": "Viability of human T lymphocytes (MTT assay, 48 h)", "assay_type": "cell-based", "conditions": "for cell toxicity to T-cells: 0.1 μM, in words", "source_text": "(§1) The MTT (3-[4,5-dimethylthiazol-2-yl]-2,5-diphenyltetrazoliumbromide) assay was used to determine the cytotoxicity of gracilin derivatives in T lymphocytes (Burton, J. D. Methods Mol. Med., 2005, 110, 69-78) and SH-SY5Y cells and the protective effect of these compounds against H2O2 insult in neuroblastoma cells as previously described (Leiros, M., Alonso, E., Sanchez, J. A., Rateb, M. E., Ebel, R., Houssen, W. E., Jaspars, M., Alfonso, A. and Botana, L. M. ACS Chem. Neurosci., 2014, S, 71-80). Human T lymphocytes were cultured in 24 well plates at the concentration of 2.5×10^6 cells/mL and exposed to different compound concentrations (0.01, 0.1, 1 and 10 μM) added to the culture medium. Human T cells were maintained in the presence of the pure compound at 37° C. in humidified 5% CO2/95% air atmosphere for 48 h.\nSaponin was used as cellular death control and its absorbance was subtracted from the other data. After the incubation period with compounds, assay was performed. First cells were centrifuged (1500 rpm, 5 min, 4° C.). The pellets were resuspended in saline solution with MTT (250 μg/mL) and then incubated at 37° C. during 30 min. After washing off excess MTT twice with saline solution, cells were disaggregated with H2O and sonicated for 1 min and the absorbance of the colored formazan salt was measured at 595 nm in a spectrophotometer plate reader. All experiments were performed three times."}, "[1]": {"system": "Interleukin-2 (IL-2) production in human T lymphocytes", "assay": "Interleukin-2 release in Con A-stimulated human T lymphocytes (ELISA)", "assay_type": "cell-based", "protocol": "Then, cells were stimulated with Concanavalin A (Con A) at 50 μg/mL for 48 h to induce IL-2 release. The amount of IL-2 released to the culture medium was evaluated using Human IL-2 ELISA kit. Experiments were carried out four times."}, "[2]": {"molecular_target": "T1, active human CypA protein (Homo sapiens, UniProt P62937)", "T1 construct": "Active human CypA full-length protein was from Abcam; purchased Abcam", "T1 sequence (P62937 whole entry)": "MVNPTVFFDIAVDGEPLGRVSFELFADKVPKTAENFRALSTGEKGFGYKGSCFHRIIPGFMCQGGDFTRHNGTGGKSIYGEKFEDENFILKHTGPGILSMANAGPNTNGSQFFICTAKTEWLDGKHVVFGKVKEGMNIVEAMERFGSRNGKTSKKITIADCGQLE", "assay": "Binding to immobilized CypA by surface plasmon resonance (SPR)", "conditions": "for affinity for CypA (association curves, KD) / fold increase in KD toward CypA compared to gracilin A: SPR; for affinity for CypA (association curves, KD): various concentrations; for affinity for CypA (association curves, KD) / immunosuppressive activity (SAR profile, FIG. 2): in words; for immunosuppressive activity (SAR profile, FIG. 2): CypA binding / IL-2 inhibition", "protocol": "Sensor surface activation and ligand immobilization were performed by using HBS-EP as running buffer at a flow rate of 5 μL/min and 25° C. CM5 sensor chips were used as surface where Cyp A or D was immobilized as ligand. The CM5 chip is a glass slide coated with a thin layer of gold with a matrix of carboxymethylated dextran covalently attached. The CM5 chip was activated using an amine coupling kit. […] After activation, the ligand, 100 μg/mL of active human CypA protein dissolved in sodium acetate 10 mM at pH 4.5 was added to be immobilized over a CM5 sensor chip. Finally ethanolamine-HCl was injected to deactivate the remaining active esters and to avoid non-specific binding. […] Once analytes were tested and interaction was observed, individual binding curves were analyzed by determining the kinetic constants of analytes-CypA binding, namely, the observed rate constant (Kobs), the association rate constant (Kass), the dissociation rate constant (Kdiss), and the kinetic equilibrium dissociation constant (KD). At equilibrium, by definition, […]. The pseudo-first order association rate constants Kobs (s^-1) were determined for each compound concentration by using the 1:1 Langmuir association model of BiaEvaluation software (BiaCore, Uppsala, Sweden). Then a representation of Kobs against the corresponding concentration of each compound was done. […] From the equation of these representations, Kass, M^-1 s^-1, gradient of the plot, and […]^-1, intercept of the plot was obtained. Within these two values, the kinetic equilibrium dissociation constant KD for each analyte-CypA binding was obtained. The duration of the sample injection was 2 min at 10 μL/min flow rate. Next, dissociation of bound molecules in HBS-EP buffer flow was studied. The bound drugs were removed from the chip surface before the next injection by adding 1 M Glycine-HCl at pH 2.5 for 1 min. The association phase was used to quantify the compound-CypA or D interactions. All experiments were performed four times."}, "SH-SY5Y cells [3]": {"system": "SH-SY5Y cells", "assay": "Cellular toxicity in SH-SY5Y cells (MTT, 24 h)", "assay_type": "cell-based", "conditions": "SH-SY5Y, 24 h incubation; read-out: IC50 (cellular toxicity)", "source_text": "as §1\n(§2) SH-SY5Y cells were seeded in 96-well plates at a density of 2.5×10^5 cells/mL and allowed to adhere for 24 h. At first, cells were treated only with compounds at concentrations ranging from 10-0.01 μM for 24 h to determine their possible cytotoxic effects. Experiments were carried out three times. For neuroprotective experiments, cells were treated with compounds at non-toxic concentrations (1 μM→1 nM) and 150 μM H2O2 for 6 h. Briefly, cells were washed three times with saline solution and 200 μL of MTT (500 μg/mL) dissolved in saline buffer were added to each well. Following 1 h of incubation at 37° C., the cells were disaggregated with sodium dodecyl sulphate at 5%.\nAbsorbance of formazan crystals was measured at 595 nm with a spectrophotometer plate reader. Saponin was used as death control and its absorbance was subtracted from the other data. All experiments were performed four times."}, "SH-SY5Y cells [4]": {"system": "SH-SY5Y cells", "assay": "Intracellular ROS levels (carboxy-H2DCFDA) after H2O2", "assay_type": "cell-based, human", "conditions": "150 μM H2O2 co-treatment 6 h", "protocol": "Intracellular levels of reactive oxygen species (ROS) were determined with carboxy-H2DCFDA (5-(and-6)-carboxy-2′,7′-dichlorodihydrofluorescein diacetate). This dye diffuses through the cellular membrane and is converted by cellular esterases to carboxy-H2DCFH (non-fluorescent). When carboxy-H2DCFH is oxidized by ROS, it becomes fluorescent (Halliwell, B. and Whiteman, M. Br. J. Pharmacol., 2004, 142, 231-255). Cells were seeded at a density of 2.5×10^5 cells/mL in 96-well plates and allowed to attach for 24 h. Following treatment with compounds at various concentrations (1 μM→1 nM) and 150 μM H2O2 for 6 h, SH-SY5Y cells were washed twice with serum-free culture medium. Then, carboxy-H2DCFDA 20 μM dissolved in serum-free culture medium was added to each well and the cells were incubated for 1 h at 37° C. After this incubation, the medium with the fluorescent dye was replaced with PBS and the plate was incubated for 30 min at 37° C. Fluorescence was read at 527 nm, with an excitation wavelength of 495 nm. All experiments were performed four times."}, "SH-SY5Y cells [5]": {"system": "SH-SY5Y cells", "assay": "Neuroprotection against H2O2 toxicity, cell viability by MTT", "assay_type": "cell-based, human", "conditions": "150 μM H2O2 co-treatment 6 h; 0.01, 0.1 and 1 μM", "protocol": "as §2, with “5%. Absorbance of formazan crystals was measured at 595 nm with a spectrophotometer plate reader. Saponin was used as death control and its absorbance was subtracted from the other data. All experiments were performed four times.” for “5%.”"}}, "data": [{"compound": "CC(=O)OC1CCC(OC(C)=O)O1", "note": "(mixture of isomers) [(±)-9, cis- and trans-2,5-tetrahydrofuran-2,5-diyl diacetate]", "values": [{"measurement": "cell toxicity to T-cells", "setting": "human T lymphocytes", "value": "did not show signs of cell toxicity"}, {"measurement": "Inhibition of IL-2 production", "setting": "[1]; in words", "value": "did not inhibit IL-2 production"}, {"measurement": "affinity for CypA (association curves, KD)", "setting": "[2]", "value": "no affinity"}]}, {"compound": "CC(=O)O[C@H]1O[C@@H](OC(C)=O)[C@@H]2CCC(=O)C[C@H]12", "note": "[Compound 17, (1S,3R,3aS,7aR)-5-oxooctahydroisobenzofuran-1,3-diyl diacetate]", "values": [{"measurement": "cell toxicity to T-cells", "setting": "human T lymphocytes", "value": "did not show signs of cell toxicity"}, {"measurement": "Inhibition of IL-2 production", "setting": "[1]; in words", "value": "did not inhibit IL-2 production"}, {"measurement": "affinity for CypA (association curves, KD)", "setting": "[2]", "value": "no affinity"}]}, {"compound": "CC(=O)OC1OC(OC(C)=O)[C@@H]2CCC=C[C@H]12", "note": "(stereo partly drawn) [Compound 18, (3aR,7aS)-1,3,3a,4,5,7a-hexahydroisobenzofuran-1,3-diyl diacetate]", "values": [{"measurement": "cell toxicity to T-cells", "setting": "human T lymphocytes", "value": "did not show signs of cell toxicity"}, {"measurement": "Inhibition of IL-2 production", "setting": "[1]; in words", "value": "did not inhibit IL-2 production"}, {"measurement": "affinity for CypA (association curves, KD)", "setting": "[2]", "value": "no affinity"}]}, {"compound": "CC(=O)O[C@@H]1OC[C@H]2CC(=O)CC[C@H]21", "note": "[Compound 24, (1S,3aS,7aR)-5-oxooctahydroisobenzofuran-1-yl acetate]", "values": [{"measurement": "immunosuppressive activity (SAR profile, FIG. 2)", "setting": "[2]", "value": "inactive"}]}, {"compound": "CC1(C2=C[C@@H]3COC(=O)[C@@H]3CC2)CCCCC1", "note": "[Compound 26, (3aS,7aR)-5-(1-methylcyclohexyl)-3a,6,7,7a-tetrahydroisobenzofuran-1(3H)-one]", "values": [{"measurement": "immunosuppressive activity (SAR profile, FIG. 2)", "setting": "[2]", "value": "inactive"}]}, {"compound": "(0R,3S,3aR,7aS)-6-((R)-1,3,3-trimethyl-cyclohexyl)-1,3,3a,4,5,7a-hexahydroisobenzofuran-1,3-diyl diacetate [Compound 23d]", "values": [{"measurement": "impact on T-cell viability", "setting": "human T lymphocytes", "value": "no impact on cell viability"}, {"measurement": "Inhibition of IL-2 production", "setting": "[1]; 2 h pre-treatment at non-toxic concentration, Con A 50 μg/mL 48 h", "value": 46, "unit": "%"}, {"measurement": "IC50", "setting": "SH-SY5Y cells [3]", "value": 1400, "unit": "nM"}, {"measurement": "fold increase in KD toward CypA compared to gracilin A", "setting": "[2]", "value": "~1000", "unit": "fold"}]}, {"compound": "(1S,3R,3aS,7aR)-5-((S)-1,3,3-trimethylcyclohexyl)-1,3,3a,4,7,7a-hexahydroisoben-zofuran-1,3-diyl diacetate [Compound 23a]", "values": [{"measurement": "ROS levels", "setting": "SH-SY5Y cells [4]", "value": "diminishing ROS at two or three concentrations"}, {"measurement": "decrease in cell viability", "setting": "human T lymphocytes", "value": "~10", "unit": "%"}, {"measurement": "protection of cell viability against H2O2 insult", "setting": "SH-SY5Y cells [5]", "value": "protected cells against H2O2 insult at almost all concentrations"}, {"measurement": "IC50", "setting": "SH-SY5Y cells [3]", "value": 1400, "unit": "nM"}, {"measurement": "fold increase in KD toward CypA compared to gracilin A", "setting": "[2]", "value": "~1000", "unit": "fold"}]}]}
